# Results taken from patent US20260207578A1, “COMPOUND BASED ON SULFUR/OXYGEN SUBSTITUTED GLUTARIMIDE-BASED ISOINDOLINONE SKELETON AND USE THEREOF” (Gluetacs Therapeutics (Shanghai) Co., LTD., priority 2022, published 2026).
# pIC50: −log10 of the molar value.
# Tests used:
# [1] = target: T1, GSPT1 (Homo sapiens, UniProt P15170+Q96SW2); assay: Western-blot assay, substrate protein in hPBMCs; assay type: cell-based; settings: hPBMC cells, 24 hours, tested at 50 nM and 500 nM, table does not say which
# T1 construct: endogenous in cells; host or cells: human PBMCs (Milecell Biotechnologies)
# T1 sequence (P15170 whole entry): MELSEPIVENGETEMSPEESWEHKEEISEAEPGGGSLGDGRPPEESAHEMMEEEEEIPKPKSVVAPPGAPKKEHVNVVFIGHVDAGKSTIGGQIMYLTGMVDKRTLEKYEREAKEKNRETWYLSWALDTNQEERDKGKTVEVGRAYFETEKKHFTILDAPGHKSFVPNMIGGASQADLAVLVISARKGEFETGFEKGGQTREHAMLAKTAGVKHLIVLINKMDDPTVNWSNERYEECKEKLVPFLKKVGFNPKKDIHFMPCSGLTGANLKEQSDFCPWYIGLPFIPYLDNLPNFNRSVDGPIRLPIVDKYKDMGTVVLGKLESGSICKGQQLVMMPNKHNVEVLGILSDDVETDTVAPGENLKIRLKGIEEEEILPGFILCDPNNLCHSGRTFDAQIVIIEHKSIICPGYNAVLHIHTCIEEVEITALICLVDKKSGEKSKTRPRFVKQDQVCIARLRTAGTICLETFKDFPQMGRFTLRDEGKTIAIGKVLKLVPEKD
# T1 sequence (Q96SW2 whole entry): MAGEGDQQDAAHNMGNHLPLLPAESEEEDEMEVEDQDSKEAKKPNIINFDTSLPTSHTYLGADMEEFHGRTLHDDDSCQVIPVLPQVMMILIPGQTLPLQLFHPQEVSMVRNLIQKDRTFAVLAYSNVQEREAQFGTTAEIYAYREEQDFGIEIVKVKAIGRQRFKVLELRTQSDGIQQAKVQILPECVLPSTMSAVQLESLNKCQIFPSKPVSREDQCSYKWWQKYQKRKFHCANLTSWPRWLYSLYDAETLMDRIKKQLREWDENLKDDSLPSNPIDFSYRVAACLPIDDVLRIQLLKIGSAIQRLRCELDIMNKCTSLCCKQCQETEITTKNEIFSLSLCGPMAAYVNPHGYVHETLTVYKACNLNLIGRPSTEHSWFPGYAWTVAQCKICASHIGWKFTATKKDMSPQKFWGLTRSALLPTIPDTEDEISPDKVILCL
# T1 sequence (Q16531 whole entry partner): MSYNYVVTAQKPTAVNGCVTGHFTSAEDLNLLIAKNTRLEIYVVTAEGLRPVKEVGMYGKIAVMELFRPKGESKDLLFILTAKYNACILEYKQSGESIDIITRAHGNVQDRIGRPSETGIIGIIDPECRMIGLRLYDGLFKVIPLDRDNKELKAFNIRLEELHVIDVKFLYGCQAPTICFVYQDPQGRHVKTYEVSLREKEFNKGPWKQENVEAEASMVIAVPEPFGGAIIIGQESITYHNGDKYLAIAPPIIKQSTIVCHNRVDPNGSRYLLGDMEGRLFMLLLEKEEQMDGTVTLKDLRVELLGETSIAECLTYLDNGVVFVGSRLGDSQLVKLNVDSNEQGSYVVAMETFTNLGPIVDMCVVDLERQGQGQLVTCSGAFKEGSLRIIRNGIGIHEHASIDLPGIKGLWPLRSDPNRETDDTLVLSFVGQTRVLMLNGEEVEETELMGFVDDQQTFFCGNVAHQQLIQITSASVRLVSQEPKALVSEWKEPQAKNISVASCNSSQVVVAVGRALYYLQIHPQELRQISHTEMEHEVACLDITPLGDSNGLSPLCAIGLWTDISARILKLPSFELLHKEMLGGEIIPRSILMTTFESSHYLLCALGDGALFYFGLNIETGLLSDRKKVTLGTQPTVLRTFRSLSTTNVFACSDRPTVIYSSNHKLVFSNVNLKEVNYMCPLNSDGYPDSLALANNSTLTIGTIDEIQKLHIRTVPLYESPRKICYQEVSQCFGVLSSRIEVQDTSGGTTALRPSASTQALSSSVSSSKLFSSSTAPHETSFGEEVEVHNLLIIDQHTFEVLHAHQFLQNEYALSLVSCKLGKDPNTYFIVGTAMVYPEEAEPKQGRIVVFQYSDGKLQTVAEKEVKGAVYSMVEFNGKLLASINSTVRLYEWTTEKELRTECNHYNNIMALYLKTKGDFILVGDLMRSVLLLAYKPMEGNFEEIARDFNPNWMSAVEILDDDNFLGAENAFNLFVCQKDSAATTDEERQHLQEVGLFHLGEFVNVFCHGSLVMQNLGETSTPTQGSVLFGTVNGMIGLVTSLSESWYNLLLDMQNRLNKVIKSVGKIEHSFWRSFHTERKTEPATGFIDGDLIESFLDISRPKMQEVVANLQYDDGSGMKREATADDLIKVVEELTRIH
# Summary of the method: (§1)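 Cellular protein levels after a 24 h degrader treatment of human PBMCs were assessed by Western blot densitometry relative to an internal control. Results are expressed as % remaining, % degraded, or DC50 versus DMSO-treated cells.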
# [2] = target: T2, CK1α (Homo sapiens, UniProt P48729+Q96SW2); assay: Western-blot assay, substrate protein in hPBMCs; assay type: cell-based; settings: hPBMC cells, 24 hours, tested at 50 nM and 500 nM, table does not say which
# T2 construct: endogenous in cells; host or cells: human PBMCs (Milecell Biotechnologies)
# T2 sequence (P48729 whole entry): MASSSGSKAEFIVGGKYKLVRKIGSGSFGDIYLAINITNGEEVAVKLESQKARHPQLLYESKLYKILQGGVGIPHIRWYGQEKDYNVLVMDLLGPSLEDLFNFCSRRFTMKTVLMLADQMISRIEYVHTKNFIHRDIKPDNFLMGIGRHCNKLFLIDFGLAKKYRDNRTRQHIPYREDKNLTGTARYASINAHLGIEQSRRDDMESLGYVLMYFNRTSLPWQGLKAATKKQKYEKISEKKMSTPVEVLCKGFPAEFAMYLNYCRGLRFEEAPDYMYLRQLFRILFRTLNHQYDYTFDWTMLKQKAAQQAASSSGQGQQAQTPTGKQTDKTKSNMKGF
# T2 sequence (Q96SW2 whole entry): as the sequence (Q96SW2 whole entry) above
# T2 sequence (Q16531 whole entry partner): as the sequence (Q16531 whole entry partner) above
# Summary of the method: as §1
# [3] = target: T3, Wee1 (Homo sapiens, UniProt P30291+Q96SW2); assay: Western-blot assay, substrate protein in hPBMCs; assay type: cell-based; settings: hPBMC cells, 24 hours, tested at 50 nM and 500 nM, table does not say which
# T3 construct: endogenous in cells; host or cells: human PBMCs (Milecell Biotechnologies)
# T3 sequence (P30291 whole entry): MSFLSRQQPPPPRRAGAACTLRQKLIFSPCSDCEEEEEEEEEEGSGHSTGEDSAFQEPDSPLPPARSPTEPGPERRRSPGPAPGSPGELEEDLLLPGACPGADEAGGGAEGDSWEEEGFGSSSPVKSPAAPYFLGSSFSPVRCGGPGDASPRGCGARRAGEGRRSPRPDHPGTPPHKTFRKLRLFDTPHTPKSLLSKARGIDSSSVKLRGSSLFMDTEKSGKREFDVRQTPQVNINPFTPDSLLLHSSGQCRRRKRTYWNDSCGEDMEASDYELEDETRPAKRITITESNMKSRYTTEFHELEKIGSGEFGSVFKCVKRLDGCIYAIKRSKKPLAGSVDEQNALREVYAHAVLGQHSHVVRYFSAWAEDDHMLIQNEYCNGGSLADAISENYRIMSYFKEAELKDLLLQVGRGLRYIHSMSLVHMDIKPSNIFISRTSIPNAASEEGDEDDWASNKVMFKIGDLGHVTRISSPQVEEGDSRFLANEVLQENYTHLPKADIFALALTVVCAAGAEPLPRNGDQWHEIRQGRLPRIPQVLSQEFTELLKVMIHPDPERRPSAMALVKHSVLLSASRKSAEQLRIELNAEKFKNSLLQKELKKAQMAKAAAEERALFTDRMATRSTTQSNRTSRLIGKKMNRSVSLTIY
# T3 sequence (Q96SW2 whole entry): as the sequence (Q96SW2 whole entry) above
# T3 sequence (Q16531 whole entry partner): as the sequence (Q16531 whole entry partner) above
# Summary of the method: as §1
# [4] = tested on: MV-4-11; assay: Half inhibitory concentration (IC50) against tumor cells, Cell Counting Kit-8; assay type: cell-based; settings: Homo sapiens, MV4-11, CCK-8, 96 h treatment, read-out: inhibitory activity (IC50, nM) against tumor cells proliferation
# Procedure: The tumor cells used herein were cultured in a cell culture medium listed in table A at 37° C. in an incubator with 5% CO2.
# After the cells were treated with the compounds of the present disclosure for a period of time, the cell viability detection reagent was added to the culture medium for cell viability assessment according to the instructions provided with the CCK-8 kit. […] The growth inhibition of the compounds of the present disclosure on cells was plotted by Prism Graphpad software, and the IC50 values of the compounds of the present disclosure were calculated therefrom.
# [5] = target: T4, IKZF2 (Homo sapiens, UniProt Q96SW2+Q9UKS7); assay: Western-blot assay, substrate protein in hPBMCs; assay type: cell-based; settings: hPBMC cells, 24 hours, tested at 50 nM and 500 nM, table does not say which
# T4 construct: endogenous in cells; host or cells: human PBMCs (Milecell Biotechnologies)
# T4 sequence (Q9UKS7 whole entry): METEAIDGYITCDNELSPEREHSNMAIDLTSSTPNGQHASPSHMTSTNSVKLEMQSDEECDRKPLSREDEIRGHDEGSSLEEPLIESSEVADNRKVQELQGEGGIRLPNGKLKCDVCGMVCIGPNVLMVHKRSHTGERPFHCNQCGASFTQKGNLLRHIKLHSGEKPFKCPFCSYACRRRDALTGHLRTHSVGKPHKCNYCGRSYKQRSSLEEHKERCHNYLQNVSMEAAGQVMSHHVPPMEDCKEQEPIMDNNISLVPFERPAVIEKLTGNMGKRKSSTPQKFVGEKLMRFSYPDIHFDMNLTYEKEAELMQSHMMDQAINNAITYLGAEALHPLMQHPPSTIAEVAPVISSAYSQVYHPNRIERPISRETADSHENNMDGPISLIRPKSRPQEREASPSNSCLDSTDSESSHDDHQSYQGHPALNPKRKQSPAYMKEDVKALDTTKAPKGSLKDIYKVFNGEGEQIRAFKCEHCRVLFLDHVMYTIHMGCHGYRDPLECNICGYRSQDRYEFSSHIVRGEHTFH
# T4 sequence (Q96SW2 whole entry): as the sequence (Q96SW2 whole entry) above
# T4 sequence (Q16531 whole entry partner): as the sequence (Q16531 whole entry partner) above
# Summary of the method: as §1
# [6] = target: T5, human Cereblon WT GST-tagged protein (Homo sapiens, UniProt Q96SW2); assay: CRBN-binding affinity, HTRF (CEREBLON BINDING kit); settings: displacement of Thalidomide-Re reagent, 3 hours at room temperature
# T5 construct: purchased CISBIO 64BDCRBNPEH
# T5 sequence (Q96SW2 whole entry): as the sequence (Q96SW2 whole entry) above
# Summary of the method: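 Compounds displace a thalidomide-Re tracer from GST-tagged human Cereblon WT, detected with an Eu-labelled anti-GST antibody by time-resolved fluorescence. Signal at 620 nm was normalised against solvent and blank controls.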
# [7] = target: T6, IKZF3 (Homo sapiens, UniProt Q96SW2+Q9UKT9); assay: Western-blot assay, substrate protein in hPBMCs; assay type: cell-based; settings: hPBMC cells, 24 hours, tested at 50 nM and 500 nM, table does not say which
# T6 construct: endogenous in cells; host or cells: human PBMCs (Milecell Biotechnologies)
# Summary of the method: (§2)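 hPBMCs (1×10^6 cells/mL) exposed 24 h to compound at 50 nM and 500 nM, lysed, and probed by Western blot. Band grayscale normalized to internal control gives % protein remaining versus DMSO; DC50 from concentration-response fit at half DMSO band intensity.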
# [8] = target: T7, IKZF1 (Homo sapiens, UniProt Q13422+Q96SW2); assay: Western-blot assay, substrate protein in hPBMCs; assay type: cell-based; settings: hPBMC cells, 24 hours, tested at 50 nM and 500 nM, table does not say which
# T7 construct: endogenous in cells; host or cells: human PBMCs (Milecell Biotechnologies)
# T7 sequence (Q13422 whole entry): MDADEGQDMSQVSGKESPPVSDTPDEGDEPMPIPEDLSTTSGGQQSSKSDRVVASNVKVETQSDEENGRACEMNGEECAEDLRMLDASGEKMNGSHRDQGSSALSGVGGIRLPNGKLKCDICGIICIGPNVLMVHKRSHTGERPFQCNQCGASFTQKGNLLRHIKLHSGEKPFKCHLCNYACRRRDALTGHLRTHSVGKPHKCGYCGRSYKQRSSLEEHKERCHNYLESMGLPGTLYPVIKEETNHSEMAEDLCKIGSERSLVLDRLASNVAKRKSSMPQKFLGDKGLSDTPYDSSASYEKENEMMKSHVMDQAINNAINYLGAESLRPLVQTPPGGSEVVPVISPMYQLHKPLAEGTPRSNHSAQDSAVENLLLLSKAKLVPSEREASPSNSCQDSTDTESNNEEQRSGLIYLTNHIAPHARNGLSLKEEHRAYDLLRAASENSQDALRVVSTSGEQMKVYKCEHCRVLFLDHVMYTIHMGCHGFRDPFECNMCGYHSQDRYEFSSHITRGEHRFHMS
# T7 sequence (Q96SW2 whole entry): as the sequence (Q96SW2 whole entry) above
# T7 sequence (Q16531 whole entry partner): as the sequence (Q16531 whole entry partner) above
# Summary of the method: as §2
IC50 [4] [nM],pIC50 [6],Compound,substrate protein remaining % [1],substrate protein remaining % [2],substrate protein remaining % [3],substrate protein remaining % [5],substrate protein remaining % [7],substrate protein remaining % [8]
500 to 1000,–,"CC1(C)CCC(CN2CCC(Sc3ccc4c(c3)CN(C3CCC(=O)NC3=O)C4=O)C(F)(F)C2)=C(c2ccc(Cl)cc2)C1 (centres unmarked) [GT-06960, 3-(5-((1-((4′-chloro-5,5-dimethyl-3,4,5,6-tetrahydro-[1,1′-biphenyl]-2-yl)methyl)-3,3-difluoropiperidin-4-yl)thio)-1-oxoisoindolin-2-yl)piperidine-2,6-dione]",A (0%≤ substrate protein remaining % ≤80%),A (0%≤ substrate protein remaining % ≤80%),A (0%≤ substrate protein remaining % ≤80%),–,–,–
500 to 1000,5.72 to 6.00,"CC1(C)CCC(CN2CCC(Oc3ccc4c(c3)CN(C3CCC(=O)NC3=O)C4=O)C2)=C(c2ccc(Cl)cc2)C1 (centres unmarked) [GT-06815, 3-(5-((1-((4′-chloro-5,5-dimethyl-3,4,5,6-tetrahydro-[1,1′-biphenyl]-2-yl)methyl)pyrrolidin-3-yl)oxy)-1-oxoisoindolin-2-yl)piperidine-2,6-dione]",A (0%≤ substrate protein remaining % ≤80%),A (0%≤ substrate protein remaining % ≤80%),A (0%≤ substrate protein remaining % ≤80%),A (0%≤ substrate protein remaining % ≤80%),A (0%≤ substrate protein remaining % ≤80%),A (0%≤ substrate protein remaining % ≤80%)
500 to 1000,5.72 to 6.00,"CC1(C)CCC(C(=O)N2CCC3(CCC(Sc4ccc5c(c4)CN(C4CCC(=O)NC4=O)C5=O)CC3)CC2)=C(c2ccc(Cl)cc2)C1 (centres unmarked) [GT-07016, 3-(5-((3-(4′-chloro-5,5-dimethyl-3,4,5,6-tetrahydro-[1,1′-biphenyl]-2-carbonyl)-3-azaspiro[5.5]undecan-9-yl)thio)-1-oxoisoindolin-2-yl)piperidine-2,6-dione]",–,–,–,–,–,–
100 to 500,> 6.30,"O=C1CCC(N2Cc3cc(OC4CCCN(C(=O)c5ccccc5-c5ccc(Cl)cc5)CC4)ccc3C2=O)C(=O)N1 (centres unmarked) [GT-06935, 3-(5-((1-(4′-chloro-[1,1′-biphenyl]-2-carbonyl)azepan-4-yl)oxy)-1-oxoisoindolin-2-yl)piperidine-2,6-dione]",A (0%≤ substrate protein remaining % ≤80%),A (0%≤ substrate protein remaining % ≤80%),A (0%≤ substrate protein remaining % ≤80%),–,–,–
1 to 10,6.00 to 6.30,"O=C1CCC(N2Cc3cc(SC4CCN(C(=O)c5ccccc5-c5ccc(Cl)cc5)CC4(F)F)ccc3C2=O)C(=O)N1 (centres unmarked) [GT-06925, 3-(5-((1-(4′-chloro-[1,1′-biphenyl]-2-carbonyl)-3,3-difluoropiperidin-4-yl)thio)-1-oxoisoindolin-2-yl)piperidine-2,6-dione]",A (0%≤ substrate protein remaining % ≤80%),A (0%≤ substrate protein remaining % ≤80%),A (0%≤ substrate protein remaining % ≤80%),A (0%≤ substrate protein remaining % ≤80%),A (0%≤ substrate protein remaining % ≤80%),A (0%≤ substrate protein remaining % ≤80%)
500 to 1000,> 6.30,"O=C1CCC(N2Cc3cc(OC4CC5(CCN(C(c6ccccc6)c6ccccc6)CC5)C4)ccc3C2=O)C(=O)N1 (centres unmarked) [GT-06956, 3-(5-((7-benzhydryl-7-azaspiro[3.5]nonan-2-yl)oxy)-1-oxoisoindolin-2-yl)piperidine-2,6-dione]",–,A (0%≤ substrate protein remaining % ≤80%),A (0%≤ substrate protein remaining % ≤80%),A (0%≤ substrate protein remaining % ≤80%),A (0%≤ substrate protein remaining % ≤80%),A (0%≤ substrate protein remaining % ≤80%)
100 to 500,6.00 to 6.30,"CC1(C)CCC(C(=O)N2CCC3(CC2)CC(Sc2ccc4c(c2)CN(C2CCC(=O)NC2=O)C4=O)C3)=C(c2ccc(Cl)cc2)C1 (centres unmarked) [GT-06918, 3-(5-((7-(4′-chloro-5,5-dimethyl-3,4,5,6-tetrahydro-[1,1′-biphenyl]-2-carbonyl)-7-azaspiro[3.5]nonan-2-yl)thio)-1-oxoisoindolin-2-yl)piperidine-2,6-dione]",–,–,A (0%≤ substrate protein remaining % ≤80%),A (0%≤ substrate protein remaining % ≤80%),A (0%≤ substrate protein remaining % ≤80%),A (0%≤ substrate protein remaining % ≤80%)
100 to 500,> 6.30,"O=C1CCC(N2Cc3cc(OC4CCCN(Cc5ccccc5-c5ccc(Cl)cc5)CC4)ccc3C2=O)C(=O)N1 (centres unmarked) [GT-06934, 3-(5-((1-((4′-chloro-[1,1′-biphenyl]-2-yl)methyl)azepan-4-yl)oxy)-1-oxoisoindolin-2-yl)piperidine-2,6-dione]",–,A (0%≤ substrate protein remaining % ≤80%),A (0%≤ substrate protein remaining % ≤80%),A (0%≤ substrate protein remaining % ≤80%),–,–
100 to 500,5.72 to 6.00,"CC1(C)CCC(CN2CCC3(CCC(Sc4ccc5c(c4)CN(C4CCC(=O)NC4=O)C5=O)CC3)CC2)=C(c2ccc(Cl)cc2)C1 (centres unmarked) [GT-06874, 3-(5-((3-((4′-chloro-5,5-dimethyl-3,4,5,6-tetrahydro-[1,1′-biphenyl]-2-yl)methyl)-3-azaspiro[5.5]undecan-9-yl)thio)-1-oxoisoindolin-2-yl)piperidine-2,6-dione]",A (0%≤ substrate protein remaining % ≤80%),A (0%≤ substrate protein remaining % ≤80%),A (0%≤ substrate protein remaining % ≤80%),A (0%≤ substrate protein remaining % ≤80%),A (0%≤ substrate protein remaining % ≤80%),–
500 to 1000,> 6.30,"O=C1CCC(N2Cc3cc(SC4CCCN(C(c5ccccc5)c5ccccc5)CC4)ccc3C2=O)C(=O)N1 (centres unmarked) [GT-06645, 3-(5-((1-benzhydrylazepan-4-yl)thio)-1-oxoisoindolin-2-yl)piperidine-2,6-dione]",A (0%≤ substrate protein remaining % ≤80%),–,–,–,–,–
50 to 100,> 6.30,"O=C1CCC(N2Cc3cc(OC4CC5CN(C(c6ccccc6)c6ccccc6)CC5C4)ccc3C2=O)C(=O)N1 (centres unmarked) [GT-06955, 3-(5-((2-benzhydryloctahydro-cyclopenta[c]pyrrol-5-yl)oxy)-1-oxoisoindolin-2-yl)piperidine-2,6-dione]",–,A (0%≤ substrate protein remaining % ≤80%),–,A (0%≤ substrate protein remaining % ≤80%),–,A (0%≤ substrate protein remaining % ≤80%)
–,5.72 to 6.00,"O=C1CCC(N2Cc3cc(OC4CCNCC4)ccc3C2=O)C(=O)N1 (centres unmarked) [GT-03612, 3-(1-oxo-5-(piperidin-4-yloxy)isoindolin-2-yl)piperidine-2,6-dione]",A (0%≤ substrate protein remaining % ≤80%),A (0%≤ substrate protein remaining % ≤80%),A (0%≤ substrate protein remaining % ≤80%),A (0%≤ substrate protein remaining % ≤80%),A (0%≤ substrate protein remaining % ≤80%),A (0%≤ substrate protein remaining % ≤80%)
10 to 50,6.00 to 6.30,"O=C1CCC(N2Cc3cc(OC4CCCN(C(c5ccccc5)c5ccccc5)CC4)ccc3C2=O)C(=O)N1 (centres unmarked) [GT-06928, 3-(5-((1-benzhydrylazepan-4-yl)oxy)-1-oxoisoindolin-2-yl)piperidine-2,6-dione]",–,–,A (0%≤ substrate protein remaining % ≤80%),A (0%≤ substrate protein remaining % ≤80%),–,–
